# Like-named read-outs stand apart in the source and are kept apart here.
# Molecular target: DEN MTase (Dengue virus type 2, UniProt P29990)
# Test: GTP-Bodipy displacement
# Format: binding
# Conditions: for Fold Affinity Reduction: Ki relative to GTP
# [1] = 10 nM GTP-Bodipy, 500 nM DEN MTase
# DEN MTase, sequence (P29990 2493-2755 limits assumed): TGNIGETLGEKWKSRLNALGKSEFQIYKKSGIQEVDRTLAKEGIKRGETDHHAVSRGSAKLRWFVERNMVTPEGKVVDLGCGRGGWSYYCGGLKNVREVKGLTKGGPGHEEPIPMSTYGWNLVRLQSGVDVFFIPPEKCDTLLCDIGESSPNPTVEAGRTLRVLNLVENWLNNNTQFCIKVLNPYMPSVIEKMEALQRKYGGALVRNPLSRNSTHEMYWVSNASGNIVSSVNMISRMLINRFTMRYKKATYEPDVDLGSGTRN
Structure (SMILES),Ki [1],Fold Affinity Reduction,Ki
Nc1nc2c(ncn2[C@H]2C[C@H](O)[C@@H](COP(=O)(O)OP(=O)(O)OP(=O)(O)O)O2)c(=O)[nH]1 [dGTP],610 nM,15,–
Cn1c[n+]([C@@H]2O[C@H](COP(=O)(O)OP(=O)(O)OP(=O)(O)OC[C@H]3O[C@@H](n4cnc5c(=O)[nH]c(N)nc54)[C@H](O)[C@@H]3O)[C@@H](O)[C@H]2O)c2nc(N)[nH]c(=O)c21 [^7meGpppG],100 nM,–,–
Cn1c[n+]([C@@H]2O[C@H](COP(=O)(O)OP(=O)(O)OP(=O)(O)OC[C@H]3O[C@@H](n4cnc5c(N)ncnc54)[C@H](O)[C@@H]3O)[C@@H](O)[C@H]2O)c2nc(N)[nH]c(=O)c21 [^7meGpppA],170 nM,–,–
Nc1nc2c(ncn2[C@@H]2O[C@H](COP(=O)(O)O)[C@@H](O)[C@H]2O)c(=O)[nH]1 [GMP],950 nM,–,–
Nc1nc2c(ncn2[C@@H]2O[C@H](COP(=O)(O)OP(=O)(O)O)[C@@H](O)[C@H]2O)c(=O)[nH]1 [GDP],100 nM,3,–
"O=c1[nH]cnc2c1ncn2[C@@H]1O[C@H](COP(=O)(O)OP(=O)(O)OP(=O)(O)O)[C@@H](O)[C@H]1O [ITP, Inosine triphosphate]",120 nM,3,–
"CSc1nc(N)nc2c1ncn2C1OC(COP(=O)(O)OP(=O)(O)OP(=O)(O)O)C(O)C1O (centres unmarked) [6-methylthio GTP, 6-methylthio-GTP]",230 nM,–,–
"Nc1nc2c(ncn2[C@@H]2O[C@H](COP(=O)(O)OP(=O)(O)OP(=O)(O)O)[C@@H](O)[C@H]2O)c(=O)[nH]1 [GTP, guanosine triphosphate]",–,0,40 nM
"Nc1nc2c(ncn2[C@@H]2O[C@H](CO)[C@@H](O)[C@H]2O)c(=O)[nH]1 [Guanosine, guanosine]",–,6400,260000 nM
Nc1nc2c(ncn2[C@H]2CC[C@@H](COP(=O)(O)OP(=O)(O)OP(=O)(O)O)O2)c(=O)[nH]1 [ddGTP],770 nM,19,–
"Nc1ncnc2c1ncn2[C@@H]1O[C@H](COP(=O)(O)OP(=O)(O)OP(=O)(O)O)[C@@H](O)[C@H]1O [ATP, Adenosine triphosphate]",–,8750,350000 nM
"O=c1[nH]c(=O)c2ncn([C@@H]3O[C@H](COP(=O)(O)OP(=O)(O)OP(=O)(O)O)[C@@H](O)[C@H]3O)c2[nH]1 [XTP, xanthine triphosphate]",480 nM,12,–
